Literature values in patent publication EP0490031B1, “Method for protecting crops while eliminating crop injury due to pesticide interactions” (priority 1990, dated 1992).

Assays:
rabbits = settings: technical grade

CCOP(=S)(OCC)SCSCC [Phorate]
acute percutaneous LD50 (rats): 2.5-6.2 mg/kg of animal body weight

CCOP(=S)(OCC)SCSC(C)(C)C [Technical grade terbufos, O,O-diethyl S-{[(1,1-dimethylethyl)thio]methyl}phosphorodithioate]
acute percutaneous LD50 (rabbits): 1.0 mg/kg of animal body weight
